These are literature values, as cited in article PMC8513935.

A short description of data set [1]: derived by the authors as gas->solvent minus gas->water (a hypothetical dry solvent; the ESI), not a two-phase measurement.
Data set [2] in a line: experimental, compiled by the authors from the literature (the ESI cites the sources).
Data set [3] in a line: log P octanol/water from commercial databases, averaged (the ESI). Conditions: Octanol (wet), 25 C.

Molecules are shown by their SMILES.

On to `CCN(CC)CC`, for which the log K of transfer, water to solvent in data set [1] (1,2-Dichloroethane, 25 C) is 0.85 log10 K; in data set [1] (Acetone, 25 C), 0.61 log10 K; in data set [1] (Butan-1-ol, 25 C), 1.2 log10 K; in data set [1] (Butan-2-ol, 25 C), 1.17 log10 K; in data set [1] (Butanone, 25 C), 0.69 log10 K; in data set [1] (CCl4, 25 C) it was 1.18 log10 K. Besides, the log K of transfer, water to solvent was 0.99 log10 K in data set [1] (Chlorobenzene, 25 C); 1.86 log10 K in data set [1] (Chloroform, 25 C); 0.654 log10 K in data set [1] (Cyclohexanone, 25 C); 0.9 log10 K in data set [1] (Diethyl Ether, 25 C); 1.21 log10 K in data set [1] (Ethanol, 25 C); 0.68 log10 K in data set [1] (Hexadecane, 25 C). Besides, the log K of transfer, water to solvent in data set [1] (Hexane, 25 C) is 0.93 log10 K; in data set [1] (Methanol, 25 C), 1.48 log10 K; in data set [1] (Pentan-1-ol, 25 C) it was 1.28 log10 K; in data set [1] (Propan-1-ol, 25 C) it was 1.14 log10 K; in data set [1] (Propan-2-ol, 25 C), 0.95 log10 K; in data set [1] (Tetrahydrofuran, 25 C), 1.01 log10 K. The log K of transfer, water to solvent in data set [3] was 1.45 log10 K. The log K of transfer, gas to solvent is 3.21 log10 K in data set [2] (1,2-Dichloroethane, 25 C); 3.56 log10 K in data set [2] (Butan-1-ol, 25 C); 3.53 log10 K in data set [2] (Butan-2-ol, 25 C); 3.05 log10 K in data set [2] (Butanone, 25 C); 3.54 log10 K in data set [2] (CCl4, 25 C); 3.35 log10 K in data set [2] (Chlorobenzene, 25 C). The log K of transfer, gas to solvent in data set [2] (Chloroform, 25 C) is 4.22 log10 K; in data set [2] (Cyclohexanone, 25 C), 3.01 log10 K; in data set [2] (Diethyl Ether, 25 C), 3.26 log10 K; in data set [2] (Ethanol, 25 C), 3.57 log10 K; in data set [2] (Hexadecane, 25 C), 3.04 log10 K; in data set [2] (Hexane, 25 C), 3.29 log10 K. In addition, the log K of transfer, gas to solvent in data set [2] (Methanol, 25 C) is 3.84 log10 K; in data set [2] (Pentan-1-ol, 25 C) it was 3.64 log10 K; in data set [2] (Propan-1-ol, 25 C), 3.5 log10 K; in data set [2] (Propan-2-ol, 25 C) it was 3.31 log10 K; in data set [2] (Propanone, 25 C), 2.97 log10 K; in data set [2] (Tetrahydrofuran, 25 C), 3.37 log10 K. Besides, in data set [2] (Water, 25 C), the log K of transfer, gas to solvent is 2.36 log10 K.

`C=CCC`: the log K of transfer, water to solvent in data set [1] (2-Methylpropan-1-ol, 25 C) was 2.46 log10 K; in data set [1] (2-Methylpropan-2-ol, 25 C) it was 2.5 log10 K; in data set [1] (3-Methylbutan-1-ol, 25 C), 2.47 log10 K; in data set [1] (Butan-1-ol, 25 C), 2.48 log10 K; in data set [1] (Butan-2-ol, 25 C) it was 2.47 log10 K; in data set [1] (CCl4, 25 C) it was 2.84 log10 K. Further, the log K of transfer, water to solvent in data set [1] (Hexadecane, 25 C) was 2.54 log10 K; in data set [1] (Hexane, 25 C), 2.83 log10 K; in data set [1] (Pentan-1-ol, 25 C), 2.48 log10 K; in data set [1] (Propan-1-ol, 25 C) it was 2.48 log10 K; in data set [1] (Propan-2-ol, 25 C), 2.46 log10 K; in data set [3], 2.4 log10 K. For the same compound, the log K of transfer, gas to solvent in data set [2] (2-Methylpropan-1-ol, 25 C) was 1.45 log10 K; in data set [2] (2-Methylpropan-2-ol, 25 C), 1.49 log10 K; in data set [2] (3-Methylbutan-1-ol, 25 C) it was 1.46 log10 K; in data set [2] (Butan-1-ol, 25 C), 1.47 log10 K; in data set [2] (Butan-2-ol, 25 C), 1.46 log10 K; in data set [2] (CCl4, 25 C), 1.83 log10 K. Further, the log K of transfer, gas to solvent is 1.53 log10 K in data set [2] (Hexadecane, 25 C); 1.83 log10 K in data set [2] (Hexane, 25 C); 1.47 log10 K in data set [2] (Pentan-1-ol, 25 C); 1.47 log10 K in data set [2] (Propan-1-ol, 25 C); 1.45 log10 K in data set [2] (Propan-2-ol, 25 C); -1.01 log10 K in data set [2] (Water, 25 C).

As to `Cc1cc(C)c(C)cc1C`, the log K of transfer, water to solvent in data set [1] (2-Methylpropan-1-ol, 25 C) is 4.24 log10 K; in data set [1] (2-Methylpropan-2-ol, 25 C), 4.32 log10 K; in data set [1] (3-Methylbutan-1-ol, 25 C), 4.33 log10 K; in data set [1] (Butan-1-ol, 25 C) it was 4.39 log10 K; in data set [1] (Butan-2-ol, 25 C), 4.32 log10 K; in data set [1] (Decan-1-ol, 25 C), 4.48 log10 K. Further, the log K of transfer, water to solvent was 4.74 log10 K in data set [1] (Di-n-butyl ether, 25 C); 4.85 log10 K in data set [1] (Diethyl Ether, 25 C); 4.19 log10 K in data set [1] (Ethanol, 25 C); 4.44 log10 K in data set [1] (Heptan-1-ol, 25 C); 4.5 log10 K in data set [1] (Hexadecane, 25 C); 4.42 log10 K in data set [1] (Hexan-1-ol, 25 C). Besides, the log K of transfer, water to solvent in data set [1] (Hexane, 25 C) is 4.78 log10 K; in data set [1] (Methanol, 25 C) it was 3.99 log10 K; in data set [1] (Pentan-1-ol, 25 C), 4.39 log10 K; in data set [1] (Propan-1-ol, 25 C), 4.26 log10 K; in data set [1] (Propan-2-ol, 25 C) it was 4.22 log10 K; in data set [3], 4.1 log10 K. In addition, the log K of transfer, gas to solvent in data set [2] (2-Methylpropan-1-ol, 25 C) was 4.77 log10 K; in data set [2] (2-Methylpropan-2-ol, 25 C) it was 4.85 log10 K; in data set [2] (3-Methylbutan-1-ol, 25 C), 4.86 log10 K; in data set [2] (Butan-1-ol, 25 C), 4.92 log10 K; in data set [2] (Butan-2-ol, 25 C) it was 4.85 log10 K; in data set [2] (Decan-1-ol, 25 C), 5.01 log10 K. Besides, the log K of transfer, gas to solvent in data set [2] (Di-n-butyl ether, 25 C) was 5.27 log10 K; in data set [2] (Diethyl Ether, 25 C), 5.38 log10 K; in data set [2] (Ethanol, 25 C), 4.72 log10 K; in data set [2] (Heptan-1-ol, 25 C), 4.97 log10 K; in data set [2] (Hexadecane, 25 C), 5.03 log10 K; in data set [2] (Hexan-1-ol, 25 C) it was 4.95 log10 K. Moreover, the log K of transfer, gas to solvent is 5.31 log10 K in data set [2] (Hexane, 25 C); 4.52 log10 K in data set [2] (Methanol, 25 C); 4.92 log10 K in data set [2] (Pentan-1-ol, 25 C); 4.79 log10 K in data set [2] (Propan-1-ol, 25 C); 4.75 log10 K in data set [2] (Propan-2-ol, 25 C); 0.53 log10 K in data set [2] (Water, 25 C).

For `Cc1cccc(C)n1`, the log K of transfer, water to solvent was 1.32 log10 K in data set [1] (Benzene, 25 C); 2.31 log10 K in data set [1] (Chloroform, 25 C); 0.67 log10 K in data set [1] (Cyclohexane, 25 C); 0.39 log10 K in data set [1] (Hexadecane, 25 C); 1.68 log10 K in data set [3]. For the same compound, the log K of transfer, gas to solvent in data set [2] (Benzene, 25 C) was 4.69 log10 K; in data set [2] (Chloroform, 25 C), 5.68 log10 K; in data set [2] (Cyclohexane, 25 C), 4.04 log10 K; in data set [2] (Hexadecane, 25 C), 3.76 log10 K; in data set [2] (Water, 25 C) it was 3.37 log10 K.

Consider `C=CCCCCCC`, for which the log K of transfer, water to solvent in data set [1] (Butyronitrile, 25 C) is 4.72 log10 K; in data set [1] (Hexadecane, 25 C) it was 4.98 log10 K; in data set [1] (Octan-1-ol(dry), 25 C) it was 4.76 log10 K; in data set [1] (Propionitrile, 25 C), 4.73 log10 K; in data set [3], 4.57 log10 K. The log K of transfer, gas to solvent in data set [2] (Butyronitrile, 25 C) is 3.31 log10 K; in data set [2] (Hexadecane, 25 C) it was 3.57 log10 K; in data set [2] (Octan-1-ol, 25 C), 3.35 log10 K; in data set [2] (Propionitrile, 25 C) it was 3.32 log10 K; in data set [2] (Water, 25 C), -1.41 log10 K.

With `Cc1cc(C)cc(O)c1`, the log K of transfer, water to solvent in data set [1] (CCl4, 25 C) is 0.82 log10 K; in data set [1] (Chlorobenzene, 25 C), 1.26 log10 K; in data set [1] (Hexadecane, 25 C), 0.256 log10 K; in data set [1] (Hexane, 25 C), 0.362 log10 K; in data set [3], 2.35 log10 K. Further, the log K of transfer, gas to solvent in data set [2] (CCl4, 25 C) is 5.42 log10 K; in data set [2] (Chlorobenzene, 25 C), 5.86 log10 K; in data set [2] (Hexadecane, 25 C), 4.85 log10 K; in data set [2] (Hexane, 25 C), 4.96 log10 K; in data set [2] (Water, 25 C), 4.6 log10 K.

`C1CCOC1`: the log K of transfer, water to solvent in data set [1] (1,2-Dichloroethane, 25 C) is 0.76 log10 K; in data set [1] (Acetone, 25 C), 0.46 log10 K; in data set [1] (CCl4, 25 C), 0.57 log10 K; in data set [1] (Chlorobenzene, 25 C) it was 0.41 log10 K; in data set [1] (Chloroform, 25 C), 1.3 log10 K; in data set [1] (Di-n-butyl ether, 25 C) it was 0.23 log10 K. In addition, the log K of transfer, water to solvent was 0.076 log10 K in data set [1] (Hexadecane, 25 C); 0.14 log10 K in data set [1] (Hexane, 25 C); 0.69 log10 K in data set [1] (Methanol, 25 C); 0.3 log10 K in data set [1] (Octan-1-ol(dry), 25 C); 0.34 log10 K in data set [1] (Propan-1-ol, 25 C); 0.33 log10 K in data set [1] (Propan-2-ol, 25 C). In addition, the log K of transfer, water to solvent was 0.58 log10 K in data set [1] (Tetrahydrofuran, 25 C) and 0.46 log10 K in data set [3]. Moreover, the log K of transfer, gas to solvent in data set [2] (1,2-Dichloroethane, 25 C) was 3.32 log10 K; in data set [2] (CCl4, 25 C), 3.13 log10 K; in data set [2] (Chlorobenzene, 25 C), 2.97 log10 K; in data set [2] (Chloroform, 25 C) it was 3.86 log10 K; in data set [2] (Di-n-butyl ether, 25 C) it was 2.79 log10 K; in data set [2] (Hexadecane, 25 C), 2.63 log10 K. For the same compound, the log K of transfer, gas to solvent was 2.7 log10 K in data set [2] (Hexane, 25 C); 3.25 log10 K in data set [2] (Methanol, 25 C); 2.86 log10 K in data set [2] (Octan-1-ol, 25 C); 2.9 log10 K in data set [2] (Propan-1-ol, 25 C); 2.89 log10 K in data set [2] (Propan-2-ol, 25 C); 3.02 log10 K in data set [2] (Propanone, 25 C). For the same compound, the log K of transfer, gas to solvent in data set [2] (Tetrahydrofuran, 25 C) is 3.14 log10 K; in data set [2] (Water, 25 C), 2.56 log10 K.

Consider `CCCCc1ccccc1`, for which the log K of transfer, water to solvent in data set [1] (Ethanol, 25 C) is 3.91 log10 K; in data set [1] (Hexadecane, 25 C), 4.44 log10 K; in data set [1] (Methanol, 25 C), 3.99 log10 K; in data set [1] (Propan-2-ol, 25 C), 4.06 log10 K; in data set [1] (Tetrahydrofuran, 25 C) it was 5.09 log10 K; in data set [3], 4.26 log10 K. The log K of transfer, gas to solvent in data set [2] (Ethanol, 25 C) was 4.2 log10 K; in data set [2] (Hexadecane, 25 C) it was 4.73 log10 K; in data set [2] (Methanol, 25 C), 4.28 log10 K; in data set [2] (Propan-2-ol, 25 C) it was 4.35 log10 K; in data set [2] (Tetrahydrofuran, 25 C), 5.38 log10 K; in data set [2] (Water, 25 C), 0.29 log10 K.
